≈ marks a conversion by molar mass, not a printed value. Like-named read-outs stand apart in the source and are kept apart here.
What was measured:
[1] = system: NF-κB; assay: High throughput assay for NF-κB reporter activity (luciferase, stably transfected SH-SY5Y cells); type: cell-based, human; settings: for maximal fold induction: 24 h, read-out: Emax
Description: SH-SY5Y human neuroblastoma cell line was obtained from the American Tissue Culture collection (ATCC). A commercially available expression vector containing the NF-kB promoter enhancer region driving the firefly luciferase gene expression and a second plasmid containing the gene conferring resistance to blasticidin were used in a dual transfection approach to obtain a stable cell line. SH-SY5Y cells stably transfected with pNF-κB-luc/pEF6 were plated at 8,000 per well in a volume of 40 μl DMEM in either Corning white opaque, 384-well plates (Cat. No. 3570, Corning, Inc., Corning, N.Y.) or Corning black clear bottom, 384-well plates (Cat. No. 3712, Corning, Inc., Corning, N.Y.) and treated with test compounds for 24 hr at 37° C. Luciferase activity was measured as a reporter of NF-kB activation using the Bright-Glo Luciferase assay kit (Cat. No. E2620, Promega, Madison, Wis.) according to the manufacturer's instructions. Cell viability was measured using the CellTiter-Glo Luminescent Cell Viability assay kit (Cat. No. G7572, Promega, Madison, Wis.) according to the manufacturer's instructions. Briefly, cells were equilibrated at room temperature for 30 min prior to the addition of Bright-Glo to the white opaque plates or CellTiter-Glo to the black clear bottom plates. A volume of assay buffer equal to the volume of cell media was added to each well and incubated for five min to allow complete cell lysis. All procedures were performed in the dark. Luminescence was measured by the Synergy4 Multi-detection microplate reader (BioTek, Winooski, Vt.) within 15 min of lysis.

[2] = Bioavailability / PK study (IV and PO); type: in vivo, mouse; settings: for oral bioavailability: I.V./P.O., 1 and 5 mg/kg; for half-life: read-out: plasma half-life (t1/2)
Description: The experiments will involve the administration of compounds to 5-6 week old CD1 male mice. Mice are dosed by either a 1 mg/kg IV bolus or 5 mg/kg oral gavage. Blood samples are collected by cardiac puncture at 0, 0.25, 0.5, 1, 2, 4, 6, 8, 12, and 24 hrs. There will be three mice per time point. Plasma concentration over time will be determined by LC/MS from which the standard PK parameters of clearance, volume of distribution, t1/2 and % F can be derived using WinNoLin software (Pharsight Inc.). This will require a total of 60 mice per compound. Plasma will be analyzed by reverse phase chromatography with MS/MS detection operating in the positive ion mode using multiple reaction monitoring using an internal standard and Applied Biosystems Analyst 1.4 software. Peak time (when maximum plasma drug concentration occurs), peak drug level [approximate maximum concentrations of drug in plasma (Cmax)] and tin for drug elimination will be estimated for each tested compound. Bioavailability (F) will be calculated from the ratio of AUCPO/AUCIV and expressed as a percentage. To determine levels in brain, six additional mice will be dosed with 1 mg/kg I.V. and sacrificed at 0.25 and 1 hr. Brain and spinal cord samples will be collected at these two time points, quick frozen in an ice box and kept at −75±15° C. All samples will be weighed and homogenized with phosphate buffered saline (PBS) by brain weight (g) to PBS volume (mL) ratio 1:3 before analysis. The actual concentration is the detected value multiplied by the dilution factor.

[3] = system: MDR/MDCK cells; assay: Permeability in MDR/MDCK cells; type: in vitro ADME, Canine
Text: (§1) A standard panel of in vitro ADME assays will be utilized to assess drug-like properties of compounds and to inform subsequent in vivo PK studies. These assays include: (a) Permeability: MDCK (Madin Darby Canine Kidney) cells transfected with the MDR1 gene encoding for the multi-drug resistant transporter (Pgp) will be utilized to determine a compound's ability to permeate the membrane in apical to basolateral (A-B) and basolateral to apical (B-A) directions. The derived apparent permeability coefficient (Papp) provides an estimate of passive permeability; a ratio of Papp in the B-A/A-B direction gives an estimate of transporter efflux; (b) Solubility: Kinetic solubility is an important parameter for accurate determinations of the dose response. This is estimated using the shake flask method with a μSol Explorer (PION, Billerica, Mass.) at pH 7.4. Compounds are added as a DMSO solution to buffer. The average of two determinations at pH 7.4 will be reported. Solubility at pH 7.4 is relevant for in vitro assays; (c) Metabolic Stability: The potential for a high metabolic clearance compound is estimated using a liver microsome assay. […] The disappearance of the parent molecule is measured by liquid chromatography/mass spectroscopy (LC/MS) detection. […]

[4] = Solubility; type: physicochemical; settings: buffer, pH 7.4, aqueous buffer, kinetic from dmso stock
Text: as §1

[5] = system: SOD2; assay: SOD2 mRNA expression by quantitative RT-PCR in SH-SY5Y neuroblastoma cells; type: cell-based; settings: human SH-SY5Y, 1 μM, 6 h (FIG. 1A)
[6] = system: SOD2; assay: SOD2 mRNA expression by quantitative RT-PCR in NSC-34 neuroblastoma cells; type: cell-based; settings: mouse NSC-34, 1 μM, 24 h (FIG. 1B)
[7] = system: glutamate-induced toxicity in primary cultures; assay: Neuroprotection in vitro; type: cell-based
[8] = system: SOD1 G93A transgenic mouse; assay: Efficacy in the SOD1 G93A transgenic mouse model of ALS; type: in vivo; settings: for progression to a score of 4: 25 mg/kg I.P. daily from day 96, 4-point severity score; for survival: SOD1 G93A males, 25 mg/kg I.P. daily from day 96
Description: Briefly, Congenic SOD1-G93A mice were dosed with up to 50 mg/kg of both compounds (IP) to evaluate any toxicity issues prior to initiating the efficacy study. Also, mice administered 20 mg of each compound had high plasma and brain levels at 30 minutes. Next, individually genotyped SOD1-G93A mice (Prize4life-Jackson Labs) were treated with each compound (25 mg/kg, IP) at disease onset (day 96). The treatment extended survival, reduced weight loss and improved the neurologic symptoms. […] Data document a 66% and an 81% lifespan extension for the compounds, respectively, at 50% survival in male mice. […] The average weight within the groups before the treatment was similar.
While compounds which increase SOD2 expression and activity have potential utility in a number of neurodegenerative diseases involving ROS overproduction, it was decided to test these two compounds in a mouse model of ALS for a variety of reasons, including the evidence for oxidative stress in ALS (described above), the ability of these compounds to induce SOD2 in a motor neuron-like mouse cell line (NSC-34; FIG. 1B), and the availability of a mouse model with dysfunction in SOD1 (human SOD1 G93A transgenic mouse; Jackson Laboratory). The pilot experiment involved treating six wildtype and six SOD1 G93A transgenic males on the C57BL/6 background with 25 mg/kg compound no. 1 and compound no. 2 I.P. daily, beginning around disease onset (day 96; FIG. 2A and FIG. 2B). Mouse survival and behavioral phenotype were observed based on guidelines from “Working with ALS mice: JAX handbook,” using a 4-point severity score (FIG. 2C).
Referring to FIG. 2A and FIG. 2B, SOD1 G93A mice received daily IP injections of saline (control) or compounds (25 mg/kg) starting on day 96.

[9] = system: SOD2; assay: SOD2 mRNA expression in vitro (FIG. 5); type: cell-based; settings: FIG. 1A-D
Text: While a number of new compounds derived from Ataluren and compound no. […] 1 and no. 2. […] Whether these and other compounds are capable of inducing SOD2 mRNA and protein activity in vitro and in vivo, in addition to their ability to protect neurons from hydrogen peroxide or glutamate-induced cell death (as in Carri et al. (2015) Frontiers in cellular neuroscience 9:41) and dysfunction/cell death in the SOD1 G93A transgenic mouse model will also be evaluated.

[10] = system: SOD2; assay: SOD2 protein expression and SOD activity in primary rat cortical cultures; type: cell-based; settings: for SOD2 protein expression: primary rat cortical cultures (FIG. 1C); for SOD activity: primary rat cortical cultures (FIG. 1D)
Text: N=3-6/group, mean+/−SEM, *p<0.05, **p<0.01, 2-way ANOVA, post-hoc t-test.

[11] = Plasma and brain levels in SOD1 G93A mice; type: in vivo, mouse; settings: 50 mg/kg I.P., within 30 minutes
Description: Before the studies above were initiated, congenic SOD1 G93A mice were dosed with 50 mg/kg of compound no. 1 and compound no. 2 via I.P. injection to rule out any toxicity issues prior to initiating the efficacy study (FIG. 2A-C).

[12] = system: inhibitory κB; assay: Inhibitory κB expression levels; type: cell-based
[13] = Table 2, unit not given (μM for nos. 3 and 20)
[14] = Homo sapiens, SH-SY5Y, Table 2, unit not given (μM for nos. 3 and 20), read-out: EC50
[15] = Homo sapiens, SH-SY5Y, read-out: EC50
[16] = Homo sapiens, SH-SY5Y, Table 2, no unit printed (text: fold)

Molecule: NC(=O)c1cccc(-c2csc(Nc3ccccc3F)n2)c1 [Compound 30]
- EC50 [1, 13]: Inactive

Molecule: Fc1ccccc1Nc1nc(-c2ccc(C(F)(F)F)cc2)cs1 [Compound 26]
- EC50 [1, 14]: > 10 µM

Molecule: Cc1noc(-c2cccc(-c3csc(Nc4ccccc4F)n3)c2)n1 [Compound 31]
- EC50 [1, 13]: Inactive

Molecule: O=C(O)c1cccc(-c2csc(Nc3ccccc3F)n2)c1 [Compound 3, 3-(2-((2-Fluorophenyl)amino)thiazol-4-yl)benzoic acid]
- Cmax ([2]; male, CD1, mouse, plasma, oral, 5 mg/kg dose): 100 ng/mL
- bioavailability ([2]; male, CD1, mouse, plasma, 1 mg/Kg IV and 5 mg/Kg po, read-out: orally bioavailable): 26%
- efflux [3]: no efflux was observed
- permeability [3]: highly permeable
- EC50 [1, 14]: 0.84 µM
- EC50 [1, 15]: ~1 µM
- solubility [4]: 80 µM (≈ 25.1 µg/mL)

Molecule: O=C(/C=C\Nc1ccccc1Br)c1ccc2c(c1)OCO2 [Compound 1, (Z)-1-(Benzo[d][1,3]dioxol-5-yl)-3-((2-bromophenyl)amino)Prop-2-en-1-one]
- SOD2 mRNA expression [5]: induce SOD2
- oral bioavailability [2]: lack of oral bioavailability
- half-life ([2]; male, CD1, mouse, plasma): < 5 min
- SOD2 mRNA expression [6]: induce SOD2
- neuroprotection in vitro [7]: neuroprotective in vitro
- maximal fold induction [1, 16]: 26
- EC50 [1, 14]: 0.5 µM
- progression to a score of 4 [8]: delayed
- survival [8]: significantly prolonged
- SOD2 mRNA expression increase [9]: 2 fold
- SOD2 protein expression [10]: induce SOD2
- SOD activity [10]: increase
- plasma and brain levels [11]: substantial plasma and brain levels
- inhibitory κB expression levels [12]: do not effect inhibitory κB expression levels

Molecule: Cc1cccnc1Nc1nc(-c2ccccn2)cs1 [Compound 2, N-(3-Methylpyridin-2-yl)-4-(pyridin-2-yl)thiazol-2-amine]
- SOD2 mRNA expression [5]: induce SOD2
- oral bioavailability [2]: lack of oral bioavailability
- half-life ([2]; male, CD1, mouse, plasma): < 5 min
- SOD2 mRNA expression [6]: induce SOD2
- neuroprotection in vitro [7]: neuroprotective in vitro
- maximal fold induction [1, 16]: 40
- EC50 [1, 14]: 0.21 µM
- progression to a score of 4 [8]: delayed
- survival [8]: significantly prolonged
- SOD2 mRNA expression increase [9]: 2 fold
- SOD2 protein expression [10]: induce SOD2
- SOD activity [10]: increase
- plasma and brain levels [11]: substantial plasma and brain levels
- inhibitory κB expression levels [12]: do not effect inhibitory κB expression levels

Molecule: Fc1ccc(-c2csc(Nc3ccccc3F)n2)cc1 [Compound 43]
- EC50 [1, 13]: Inactive

Molecule: Fc1ccc(-c2csc(Nc3ccccc3F)n2)cc1F [Compound 19]
- maximal fold induction [1, 16]: 18.5
- EC50 [1, 14]: > 10 µM

Molecule: N-(4-(2-((2-Fluorophenyl)amino)thiazol-4-yl)benzyl)acetamide [Compound 20]
- Emax [1]: > 20 fold
- Emax ([1]; Table 2, no unit printed (text: fold)): 27.58
- EC50 ([1]; Table 2, unit not given (μM for nos. 3 and 20), read-out: EC50): 3.75 µM
- EC50 ([1]; read-out: EC50): 4 µM

Molecule: N#Cc1cccc(-c2csc(Nc3ccccc3F)n2)c1 [Compound 25]
- EC50 [1, 14]: > 10 µM

Molecule: Fc1ccccc1Nc1nc(-c2ccc(OCC(F)(F)F)cc2)cs1 [Compound 24]
- EC50 [1, 14]: > 10 µM

Molecule: O=C(NC1CC1)c1cccc(-c2csc(Nc3ccccc3F)n2)c1 [Compound 28]
- EC50 [1, 13]: Inactive

Molecule: Fc1ccccc1Nc1nc(-c2cccc(Cl)c2)cs1 [Compound 17]
- maximal fold induction [1, 16]: 14.5
- EC50 [1, 14]: > 10 µM

Molecule: O=C(O)c1cccc(-c2noc(-c3ccccc3F)n2)c1 [Ataluren, reference compound]
- induction [1]: 9-10 fold
- EC50 [1, 15]: 1.5 µM

Molecule: N#Cc1ccc(-c2csc(Nc3ccccc3F)n2)cc1 [Compound 27]
- EC50 [1, 14]: > 10 µM

Molecule: Fc1ccccc1Nc1nc(-c2cccc(C(F)(F)F)c2)cs1 [Compound 16]
- maximal fold induction [1, 16]: 16
- EC50 [1, 14]: 9.35 µM

Molecule: Fc1ccccc1Nc1nc(-c2ccc(Cl)c(Cl)c2)cs1 [Compound 29]
- EC50 [1, 14]: > 10 µM

Molecule: CC(C)(O)c1cccc(-c2csc(Nc3ccccc3F)n2)c1 [Compound 21]
- maximal fold induction [1, 16]: 18.9
- EC50 [1, 14]: > 10 µM
